# According to patent US7338957B2, “Compounds and compositions as protein kinase inhibitors” (IRM LLC, priority 2003, dated 2008):
# Columns and labels:
# E255V BCR-Abl = biological target: T1, E255V BCR-Abl (Homo sapiens, UniProt P00519, E255V); assay: Antiproliferative effect on Ba/F3 cells expressing E255V BCR-Abl; type: cell-based; conditions: Ba/F3 cells expressing E255V mutant
# T1 construct: expressed in transfected cells; host or cells: Ba/F3; the other entry of the earlier key: BCR (P11274, Breakpoint cluster region protein)
# Protocol: (§1) 32D-p210 cells are plated into 96 well TC plates at a density of 15,000 cells per well. 50 μL of two fold serial dilutions of the test compound (Cmax is 40 μM) are added to each well (STI571 is included as a positive control). After incubating the cells for 48 hours at 37° C., 5% CO2, 15 μL of MTT (Promega) is added to each well and the cells are incubated for an additional 5 hours. The optical density at 570 nm is quantified spectrophotometrically and IC50 values, the concentration of compound required for 50% inhibition, determined from a dose response curve.
# (§2) Compounds of the invention are tested for their antiproliferative effect on Ba/F3 cells expressing either wild type or the mutant forms of BCR-Abl (G250E, E255V, T315I, F317L, M351T) that confers resistance or diminished sensitivity to STI571. The antiproliferative effect of these compounds on the mutant-BCR-Abl expressing cells and on the non transformed cells were tested at 10, 3.3, 1.1 and 0.37 μM as described above (in media lacking IL3). The IC50 values of the compounds lacking toxicity on the untransformed cells were determined from the dose response curves obtained as describe above.
# TrkB = biological target: T2, TrkB (Homo sapiens, UniProt Q16620); assay: Upstate KinaseProfiler radio-enzymatic filter binding assay, TrkB; type: biochemical; conditions: at a concentration of 10 μM; read-out: percentage inhibition of TrkB
# T2 construct: purchased Upstate (KinaseProfiler panel)
# Protocol: (§3) Compounds of the invention are assessed for their ability to inhibit individual members of a panel of kinases (a partial, non-limiting list of kinases includes: BMX, CSK, TrkB, FGFR3, Fes, Lck, B-RAF, C-RAF, MKK6, SAPK2α and SAPK2β). The compounds are tested in duplicates at a final concentration of 10 μM following this generic protocol. Note that the kinase buffer composition and the substrates vary for the different kinases included in the “Upstate KinaseProfiler™” panel. Kinase buffer (2.5 μL, 10×—containing MnCl2 when required), active kinase (0.001-0.01 Units; 2.5 μL), specific or Poly(Glu4-Tyr) peptide (5-500 μM or 0.01 mg/ml) in kinase buffer and kinase buffer (50 μM; 5 μL) are mixed in an eppendorf on ice. […] The assay squares are transferred to a scintillation vial, 5 ml scintillation cocktail are added and ^32P incorporation (cpm) to the peptide substrate is quantified with a Beckman scintillation counter. Percentage inhibition is calculated for each reaction.
# G250E BCR-Abl = biological target: T3, G250E BCR-Abl (Homo sapiens, UniProt P00519, G250E); assay: Antiproliferative effect on Ba/F3 cells expressing G250E BCR-Abl; type: cell-based; conditions: Ba/F3 cells expressing G250E mutant
# T3 construct: expressed in transfected cells; host or cells: Ba/F3; the other entry of the earlier key: BCR (P11274, Breakpoint cluster region protein)
# Protocol: as §1, §2
# c-Raf = biological target: T4, c-Raf (Homo sapiens, UniProt P04049); assay: Upstate KinaseProfiler radio-enzymatic filter binding assay, c-Raf; type: biochemical; conditions: at a concentration of 10 μM; read-out: percentage inhibition of c-Raf
# T4 construct: purchased Upstate (KinaseProfiler panel)
# Protocol: as §3
# Bmx = biological target: T5, Bmx (Homo sapiens, UniProt P51813); assay: Upstate KinaseProfiler radio-enzymatic filter binding assay, Bmx; type: biochemical; conditions: at a concentration of 10 μM; read-out: percentage inhibition of Bmx
# T5 construct: purchased Upstate (KinaseProfiler panel)
# T5 sequence (P51813 1-675): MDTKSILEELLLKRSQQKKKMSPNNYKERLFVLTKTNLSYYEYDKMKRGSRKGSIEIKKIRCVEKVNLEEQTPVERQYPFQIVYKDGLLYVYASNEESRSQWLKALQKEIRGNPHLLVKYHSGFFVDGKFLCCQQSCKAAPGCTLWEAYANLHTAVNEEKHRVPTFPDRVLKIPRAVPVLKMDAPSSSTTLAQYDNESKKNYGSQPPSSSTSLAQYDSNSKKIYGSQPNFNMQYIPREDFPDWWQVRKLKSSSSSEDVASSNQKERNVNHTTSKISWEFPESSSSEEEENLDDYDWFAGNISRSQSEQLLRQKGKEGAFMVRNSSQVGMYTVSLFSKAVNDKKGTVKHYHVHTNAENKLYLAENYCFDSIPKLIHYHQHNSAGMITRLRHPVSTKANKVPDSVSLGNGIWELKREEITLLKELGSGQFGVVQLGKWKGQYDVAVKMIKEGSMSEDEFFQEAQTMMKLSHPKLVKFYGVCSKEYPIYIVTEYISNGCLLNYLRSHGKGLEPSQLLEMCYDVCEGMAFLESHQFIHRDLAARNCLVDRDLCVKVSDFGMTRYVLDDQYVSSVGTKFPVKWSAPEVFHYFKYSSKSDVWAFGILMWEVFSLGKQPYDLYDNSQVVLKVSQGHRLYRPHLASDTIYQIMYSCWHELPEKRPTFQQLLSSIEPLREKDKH
# Protocol: as §3
# CSK = biological target: T6, CSK (Homo sapiens, UniProt P41240); assay: Upstate KinaseProfiler radio-enzymatic filter binding assay, CSK; type: biochemical; conditions: at a concentration of 10 μM; read-out: percentage inhibition of CSK
# T6 construct: purchased Upstate (KinaseProfiler panel)
# Protocol: as §3
# Lck = biological target: T7, Lck (Homo sapiens, UniProt P06239); assay: Upstate KinaseProfiler radio-enzymatic filter binding assay, Lck; type: biochemical; conditions: at a concentration of 10 μM; read-out: percentage inhibition of Lck
# T7 construct: purchased Upstate (KinaseProfiler panel)
# Protocol: as §3
# F317L BCR-Abl = biological target: T8, F317L BCR-Abl (Homo sapiens, UniProt P00519, F317L); assay: Antiproliferative effect on Ba/F3 cells expressing F317L BCR-Abl; type: cell-based; conditions: Ba/F3 cells expressing F317L mutant
# T8 construct: expressed in transfected cells; host or cells: Ba/F3; the other entry of the earlier key: BCR (P11274, Breakpoint cluster region protein)
# Protocol: as §1, §2
# Fes = biological target: T9, Fes (Homo sapiens, UniProt P07332); assay: Upstate KinaseProfiler radio-enzymatic filter binding assay, Fes; type: biochemical; conditions: at a concentration of 10 μM; read-out: percentage inhibition of Fes
# T9 construct: purchased Upstate (KinaseProfiler panel)
# Protocol: as §3
# SAPK2β = biological target: T10, SAPK2β (Homo sapiens, UniProt Q15759); assay: Upstate KinaseProfiler radio-enzymatic filter binding assay, SAPK2β; type: biochemical; conditions: at a concentration of 10 μM; read-out: percentage inhibition of SAPK2β
# T10 construct: purchased Upstate (KinaseProfiler panel)
# Protocol: as §3
# M351T BCR-Abl = biological target: T11, M351T BCR-Abl (Homo sapiens, UniProt P00519, M351T); assay: Antiproliferative effect on Ba/F3 cells expressing M351T BCR-Abl; type: cell-based; conditions: Ba/F3 cells expressing M351T mutant
# T11 construct: expressed in transfected cells; host or cells: Ba/F3; the other entry of the earlier key: BCR (P11274, Breakpoint cluster region protein)
# Protocol: as §1, §2
# B-RAF = B-RAF (Homo sapiens, UniProt P15056); assay: B-RAF kinase inhibition assay (IκBα substrate); type: biochemical; conditions: 20 μM ATP
# Protocol: Compounds of the invention are tested for their ability to inhibit the activity of B-RAF. The assay is carried out in 384-well MaxiSorp plates (NUNC) with black walls and clear bottom. The substrate, IκBα is diluted in DPBS (1:750) and 15 μL is added to each well. The plates are incubated at 4° C. overnight and washed 3 times with TBST (25 mM Tris, pH 8.0, 150 mM NaCl and 0.05% Tween-20) using the EMBLA plate washer. Plates are blocked by Superblock (15 μL/well) for 3 hours at room temperature, washed 3 times with TBST and pat-dried. Assay buffer containing 20 μM ATP (10 μL) is added to each well followed by 100 nL or 500 nL of compound. B-RAF is diluted in the assay buffer (1 μL into 25 μl) and 10 μL of diluted B-RAF is added to each well (0.4 μg/well). The plates are incubated at room temperature for 2.5 hours. The kinase reaction is stopped by washing the plates 6 times with TBST. Phosph-IκBα (Ser32/36) antibody is diluted in Superblock (1:10,000) and 15 μL is added to each well. The plates are incubated at 4° C. overnight and washed 6 times with TBST. AP-conjugated goat-anti-mouse IgG is diluted in Superblock (1:1,500) and 15 μL is added to each well. Plates are incubated at room temperature for 1 hour and washed 6 times with TBST. […] Plates are read on Acquest or Analyst GT using a Fluorescence Intensity Nanxin BBT anion (505 dichroic mirror).
# T315I BCR-Abl = biological target: T12, T315I BCR-Abl (Homo sapiens, UniProt P00519, T315I); assay: Antiproliferative effect on Ba/F3 cells expressing T315I BCR-Abl; type: cell-based; conditions: Ba/F3 cells expressing T315I mutant
# T12 construct: expressed in transfected cells; host or cells: Ba/F3; the other entry of the earlier key: BCR (P11274, Breakpoint cluster region protein)
# T12 sequence (P00519 229-512 T315I limits assumed): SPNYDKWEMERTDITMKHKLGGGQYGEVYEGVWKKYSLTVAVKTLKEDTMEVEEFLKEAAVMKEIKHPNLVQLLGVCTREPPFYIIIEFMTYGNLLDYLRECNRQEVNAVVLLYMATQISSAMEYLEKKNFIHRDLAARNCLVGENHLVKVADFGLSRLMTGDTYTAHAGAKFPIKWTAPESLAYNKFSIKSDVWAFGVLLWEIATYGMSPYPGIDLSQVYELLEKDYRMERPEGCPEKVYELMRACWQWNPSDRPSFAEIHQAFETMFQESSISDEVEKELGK
# Protocol: as §1, §2
# wild type BCR-Abl = biological target: T13, wild type BCR-Abl (Homo sapiens, UniProt P00519); assay: Antiproliferative effect on Ba/F3 cells expressing wild type BCR-Abl; type: cell-based
# T13 construct: expressed in transfected cells; host or cells: Ba/F3; the other entry of the earlier key: BCR (P11274, Breakpoint cluster region protein)
# Protocol: as §1, §2
# FGFR3 = biological target: T14, FGFR3 (Homo sapiens, UniProt P22607); assay: Upstate KinaseProfiler radio-enzymatic filter binding assay, FGFR3; type: biochemical; conditions: at a concentration of 10 μM; read-out: percentage inhibition of FGFR3
# T14 construct: purchased Upstate (KinaseProfiler panel)
# Protocol: as §3
# SAPK2α = biological target: T15, SAPK2α (Homo sapiens, UniProt Q16539); assay: Upstate KinaseProfiler radio-enzymatic filter binding assay, SAPK2α; type: biochemical; conditions: at a concentration of 10 μM; read-out: percentage inhibition of SAPK2α
# T15 construct: purchased Upstate (KinaseProfiler panel)
# Protocol: as §3
# MKK6 = biological target: T16, MKK6 (Homo sapiens, UniProt P52564); assay: Upstate KinaseProfiler radio-enzymatic filter binding assay, MKK6; type: biochemical; conditions: at a concentration of 10 μM; read-out: percentage inhibition of MKK6
# T16 construct: purchased Upstate (KinaseProfiler panel)
# T16 sequence (P52564 1-334): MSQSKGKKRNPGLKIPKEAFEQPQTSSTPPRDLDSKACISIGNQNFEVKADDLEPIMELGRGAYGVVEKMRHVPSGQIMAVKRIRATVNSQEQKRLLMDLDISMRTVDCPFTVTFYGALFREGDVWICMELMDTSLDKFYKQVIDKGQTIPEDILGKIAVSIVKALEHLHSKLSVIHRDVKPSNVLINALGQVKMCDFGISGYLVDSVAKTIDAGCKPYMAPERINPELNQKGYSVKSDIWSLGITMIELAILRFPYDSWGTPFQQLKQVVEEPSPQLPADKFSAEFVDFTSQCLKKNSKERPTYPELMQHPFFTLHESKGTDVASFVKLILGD
# Protocol: as §3
# T10 sequence (Q15759 whole entry): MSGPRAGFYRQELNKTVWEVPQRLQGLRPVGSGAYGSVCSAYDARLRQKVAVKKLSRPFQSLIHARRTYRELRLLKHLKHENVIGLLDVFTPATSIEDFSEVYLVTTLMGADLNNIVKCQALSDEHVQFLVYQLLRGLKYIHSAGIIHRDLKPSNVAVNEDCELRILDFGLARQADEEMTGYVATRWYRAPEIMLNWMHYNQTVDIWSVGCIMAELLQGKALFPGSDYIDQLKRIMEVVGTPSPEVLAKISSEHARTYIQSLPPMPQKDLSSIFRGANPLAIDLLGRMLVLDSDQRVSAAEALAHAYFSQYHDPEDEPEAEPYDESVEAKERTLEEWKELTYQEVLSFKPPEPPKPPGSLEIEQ
# T7 sequence (P06239 whole entry): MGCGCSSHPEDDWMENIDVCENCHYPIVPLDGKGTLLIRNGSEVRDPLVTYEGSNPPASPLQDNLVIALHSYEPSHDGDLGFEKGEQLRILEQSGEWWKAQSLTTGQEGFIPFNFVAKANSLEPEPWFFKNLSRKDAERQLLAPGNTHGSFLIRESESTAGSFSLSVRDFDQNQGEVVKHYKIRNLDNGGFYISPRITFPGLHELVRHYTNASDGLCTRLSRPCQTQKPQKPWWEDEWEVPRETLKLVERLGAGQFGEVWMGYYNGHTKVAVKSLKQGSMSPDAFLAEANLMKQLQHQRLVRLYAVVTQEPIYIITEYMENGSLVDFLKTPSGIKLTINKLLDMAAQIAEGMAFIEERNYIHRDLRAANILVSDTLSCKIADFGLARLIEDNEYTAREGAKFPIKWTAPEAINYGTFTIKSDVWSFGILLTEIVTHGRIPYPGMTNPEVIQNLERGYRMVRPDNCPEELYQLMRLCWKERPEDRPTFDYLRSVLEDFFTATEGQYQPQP
# T9 sequence (P07332 whole entry): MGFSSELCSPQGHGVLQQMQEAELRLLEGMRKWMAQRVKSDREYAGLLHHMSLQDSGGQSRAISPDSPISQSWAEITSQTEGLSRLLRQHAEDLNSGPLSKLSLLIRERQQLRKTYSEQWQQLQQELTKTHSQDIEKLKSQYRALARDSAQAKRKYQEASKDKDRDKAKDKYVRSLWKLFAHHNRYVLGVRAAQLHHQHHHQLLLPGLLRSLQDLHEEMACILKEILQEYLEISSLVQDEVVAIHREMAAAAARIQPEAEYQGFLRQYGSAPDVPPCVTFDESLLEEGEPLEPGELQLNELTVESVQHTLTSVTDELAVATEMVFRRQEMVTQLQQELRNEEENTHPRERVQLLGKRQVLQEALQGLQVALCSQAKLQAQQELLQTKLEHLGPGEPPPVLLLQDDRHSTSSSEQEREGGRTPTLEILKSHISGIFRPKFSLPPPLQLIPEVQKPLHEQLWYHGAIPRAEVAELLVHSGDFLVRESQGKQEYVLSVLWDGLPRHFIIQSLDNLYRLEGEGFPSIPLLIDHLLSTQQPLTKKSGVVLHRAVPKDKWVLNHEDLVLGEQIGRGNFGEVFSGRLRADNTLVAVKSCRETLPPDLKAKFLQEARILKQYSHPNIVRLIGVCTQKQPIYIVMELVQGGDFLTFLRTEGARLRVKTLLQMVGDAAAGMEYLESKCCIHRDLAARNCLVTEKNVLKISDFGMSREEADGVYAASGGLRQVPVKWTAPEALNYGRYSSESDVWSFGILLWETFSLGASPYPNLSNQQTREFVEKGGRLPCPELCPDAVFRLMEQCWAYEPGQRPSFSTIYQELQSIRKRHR
# T4 sequence (P04049 whole entry): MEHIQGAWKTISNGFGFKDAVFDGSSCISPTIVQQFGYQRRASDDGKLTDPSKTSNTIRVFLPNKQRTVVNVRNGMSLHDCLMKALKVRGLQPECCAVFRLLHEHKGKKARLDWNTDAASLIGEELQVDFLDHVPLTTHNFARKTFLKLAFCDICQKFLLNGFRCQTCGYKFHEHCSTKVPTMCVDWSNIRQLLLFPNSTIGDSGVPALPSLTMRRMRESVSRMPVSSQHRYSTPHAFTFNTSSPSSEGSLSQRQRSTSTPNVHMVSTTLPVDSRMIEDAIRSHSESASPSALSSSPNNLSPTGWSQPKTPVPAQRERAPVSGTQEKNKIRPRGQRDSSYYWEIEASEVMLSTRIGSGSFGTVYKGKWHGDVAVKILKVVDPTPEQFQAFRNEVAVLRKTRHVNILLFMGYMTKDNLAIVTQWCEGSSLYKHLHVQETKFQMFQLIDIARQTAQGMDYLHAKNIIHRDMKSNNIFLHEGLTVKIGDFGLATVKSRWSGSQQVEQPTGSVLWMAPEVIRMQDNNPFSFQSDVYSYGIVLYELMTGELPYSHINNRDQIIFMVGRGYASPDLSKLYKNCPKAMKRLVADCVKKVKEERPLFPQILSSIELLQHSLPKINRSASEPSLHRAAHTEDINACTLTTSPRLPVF
# T2 sequence (Q16620 32-822): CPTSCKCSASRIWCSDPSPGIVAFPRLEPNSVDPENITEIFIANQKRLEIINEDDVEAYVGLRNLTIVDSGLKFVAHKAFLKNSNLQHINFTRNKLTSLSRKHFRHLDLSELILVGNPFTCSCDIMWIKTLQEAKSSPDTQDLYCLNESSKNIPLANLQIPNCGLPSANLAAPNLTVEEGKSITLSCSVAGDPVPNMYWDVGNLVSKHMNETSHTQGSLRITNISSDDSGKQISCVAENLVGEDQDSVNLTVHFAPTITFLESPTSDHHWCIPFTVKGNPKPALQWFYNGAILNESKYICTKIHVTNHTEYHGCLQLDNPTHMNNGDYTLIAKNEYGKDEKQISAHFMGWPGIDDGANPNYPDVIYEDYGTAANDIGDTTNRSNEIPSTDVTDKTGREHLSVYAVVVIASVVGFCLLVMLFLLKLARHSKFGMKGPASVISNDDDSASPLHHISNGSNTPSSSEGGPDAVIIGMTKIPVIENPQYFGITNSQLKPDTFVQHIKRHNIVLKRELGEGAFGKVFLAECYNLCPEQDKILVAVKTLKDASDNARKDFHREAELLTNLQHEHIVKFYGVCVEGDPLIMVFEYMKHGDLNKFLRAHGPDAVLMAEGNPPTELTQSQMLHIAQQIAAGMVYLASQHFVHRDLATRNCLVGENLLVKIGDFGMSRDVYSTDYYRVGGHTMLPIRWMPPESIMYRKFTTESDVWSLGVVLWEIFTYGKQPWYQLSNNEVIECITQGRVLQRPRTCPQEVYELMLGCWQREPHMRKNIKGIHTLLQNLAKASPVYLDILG
# T14 sequence (P22607 23-806): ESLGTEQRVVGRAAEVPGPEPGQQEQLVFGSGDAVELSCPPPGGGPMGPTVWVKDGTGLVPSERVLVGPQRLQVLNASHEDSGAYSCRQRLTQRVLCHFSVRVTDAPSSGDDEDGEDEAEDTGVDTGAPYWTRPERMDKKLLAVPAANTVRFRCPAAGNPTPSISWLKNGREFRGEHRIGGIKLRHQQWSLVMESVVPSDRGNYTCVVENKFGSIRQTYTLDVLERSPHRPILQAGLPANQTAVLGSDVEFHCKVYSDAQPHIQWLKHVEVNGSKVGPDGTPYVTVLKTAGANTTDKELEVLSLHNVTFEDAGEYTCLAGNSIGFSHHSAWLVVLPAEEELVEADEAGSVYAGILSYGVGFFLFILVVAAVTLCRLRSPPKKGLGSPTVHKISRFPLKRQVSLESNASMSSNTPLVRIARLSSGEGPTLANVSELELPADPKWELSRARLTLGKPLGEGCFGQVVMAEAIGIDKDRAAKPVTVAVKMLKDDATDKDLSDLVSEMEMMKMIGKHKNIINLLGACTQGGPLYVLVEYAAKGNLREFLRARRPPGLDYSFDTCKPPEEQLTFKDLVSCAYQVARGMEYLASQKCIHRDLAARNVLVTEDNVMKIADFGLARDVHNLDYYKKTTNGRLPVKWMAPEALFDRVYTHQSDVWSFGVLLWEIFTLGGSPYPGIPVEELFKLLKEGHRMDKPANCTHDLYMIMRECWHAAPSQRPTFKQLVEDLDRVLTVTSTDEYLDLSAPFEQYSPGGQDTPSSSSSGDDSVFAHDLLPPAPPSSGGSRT
# Sequence of B-RAF (P15056 whole entry, species assumed): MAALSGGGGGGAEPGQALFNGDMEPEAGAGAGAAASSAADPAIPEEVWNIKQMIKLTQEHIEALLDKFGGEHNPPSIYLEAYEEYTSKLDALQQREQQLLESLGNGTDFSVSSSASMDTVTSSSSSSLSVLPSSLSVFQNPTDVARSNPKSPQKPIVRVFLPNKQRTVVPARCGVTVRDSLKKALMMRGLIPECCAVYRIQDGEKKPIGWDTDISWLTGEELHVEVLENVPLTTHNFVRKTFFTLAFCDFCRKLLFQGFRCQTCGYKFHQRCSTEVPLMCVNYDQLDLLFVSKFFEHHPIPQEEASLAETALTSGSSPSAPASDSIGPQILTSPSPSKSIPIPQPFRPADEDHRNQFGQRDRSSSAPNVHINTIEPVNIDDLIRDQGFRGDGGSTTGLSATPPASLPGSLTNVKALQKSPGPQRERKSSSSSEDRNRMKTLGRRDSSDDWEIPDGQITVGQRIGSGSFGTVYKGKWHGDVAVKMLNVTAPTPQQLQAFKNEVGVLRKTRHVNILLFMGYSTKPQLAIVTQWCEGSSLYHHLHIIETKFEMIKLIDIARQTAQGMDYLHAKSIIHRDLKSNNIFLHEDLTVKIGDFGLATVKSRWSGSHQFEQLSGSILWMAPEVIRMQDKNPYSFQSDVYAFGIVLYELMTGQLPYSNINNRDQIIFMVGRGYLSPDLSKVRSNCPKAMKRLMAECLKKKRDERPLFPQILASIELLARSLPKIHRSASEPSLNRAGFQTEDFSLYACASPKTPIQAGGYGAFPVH
# T15 sequence (Q16539 whole entry): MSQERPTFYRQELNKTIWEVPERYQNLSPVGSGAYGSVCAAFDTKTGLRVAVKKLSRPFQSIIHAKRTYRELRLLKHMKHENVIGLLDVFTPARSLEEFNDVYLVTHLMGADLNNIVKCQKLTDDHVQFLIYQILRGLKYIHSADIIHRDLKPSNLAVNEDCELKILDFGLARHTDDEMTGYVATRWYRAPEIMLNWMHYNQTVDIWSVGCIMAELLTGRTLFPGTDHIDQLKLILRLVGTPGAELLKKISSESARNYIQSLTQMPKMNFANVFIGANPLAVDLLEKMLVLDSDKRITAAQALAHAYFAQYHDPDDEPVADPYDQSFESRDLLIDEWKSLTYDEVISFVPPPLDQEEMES
IC50 (E255V BCR-Abl),inhibition at 10 µM (TrkB),IC50 (G250E BCR-Abl),inhibition at 10 µM (c-Raf),inhibition at 10 µM (Bmx),inhibition at 10 µM (CSK),inhibition at 10 µM (Lck),IC50 (F317L BCR-Abl),inhibition at 10 µM (Fes),inhibition at 10 µM (SAPK2β),IC50 (M351T BCR-Abl),IC50 (B-RAF),IC50 (T315I BCR-Abl),IC50 (wild type BCR-Abl),inhibition at 10 µM (FGFR3),inhibition at 10 µM (SAPK2α),inhibition at 10 µM (MKK6),Structure (SMILES)
220 nM,100%,170 nM,83%,100%,90%,95%,50 nM,82%,95%,29 nM,32 nM,370 nM,22 nM,–,–,–,"Cc1cn(-c2cc(C(=O)Nc3ccc(C)c(NC(=O)n4ccc5c(Nc6cccc(N(C)C)c6)ncnc54)c3)cc(C(F)(F)F)c2)cn1 [Example 3, 4-(3-Dimethylamino-phenylamino)-pyrrolo[2,3-d]pyrimidine-7-carboxylic acid {2-methyl-5-[3-(4-methyl-imidazol-1-yl)-5-trifluoromethyl-benzoylamino]-phenyl}-amide]"
31 nM,98%,47 nM,99%,100%,100%,96%,9 nM,98%,100%,5 nM,–,115 nM,5 nM,95%,100%,98%,"Cc1cn(-c2cc(C(=O)Nc3ccc(C)c(NC(=O)n4ccc5c(Nc6cccc(C(N)=O)c6)ncnc54)c3)cc(C(F)(F)F)c2)cn1 [Example 7, 4-(3-Carbamoyl-phenylamino)-pyrrolo[2,3-d]pyrimidine-7-carboxylic acid {2-methyl-5-[3-(4-methyl-imidazol-1-yl)-5-trifluoromethyl-benzoylamino]-phenyl}-amide]"
